Among the data in US20230148214A1, “INDAZOLES AND AZAINDAZOLES AS LRRK2 INHIBITORS” (ESCAPE Bio, Inc., priority 2020, published 2023) are IC50 values, retold here.

As usually defined, the IC50 is the midpoint of a concentration-inhibition curve.

One assay addresses T1, LRRK2 WT (Homo sapiens, UniProt Q5S007).
T1 construct: purchased Life Technologies PR8604B
Description: LRRK2 Kinase Activity Assay (LanthaScreen TR-FRET), wild type. Format: biochemical. Conditions: recombinant wild type LRRK2, 25 μM ATP, 400 nM LRRKtide, 60 min; class symbols. The procedure, abridged:
(§1)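 IC50 fitted to the compound-dependent loss of TR-FRET signal. Each kinase form, wild type or G2019S, phosphorylated the fluorescein-tagged ERM-derived LRRKtide in the presence of ATP and compound dilutions over 60 min at room temperature; quench contained 10 mM EDTA and 2 nM anti-pERM antibody (final).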
(In general: TR-FRET usually uses a lanthanide donor and a delayed reading to cut background.)

The target of another assay is T2, LRRK2 G2019S (Homo sapiens, UniProt Q5S007, G2019S).
T2 construct: purchased Life Technologies PV4881
The assay can be described thus: LRRK2 Kinase Activity Assay (LanthaScreen TR-FRET), G2019S. Format: biochemical. Conditions: recombinant G2019S-LRRK2, 25 μM ATP, 400 nM LRRKtide, 60 min; class symbols. In short, it runs like this: as §1

T2 sequence (Q5S007 whole entry G2019S): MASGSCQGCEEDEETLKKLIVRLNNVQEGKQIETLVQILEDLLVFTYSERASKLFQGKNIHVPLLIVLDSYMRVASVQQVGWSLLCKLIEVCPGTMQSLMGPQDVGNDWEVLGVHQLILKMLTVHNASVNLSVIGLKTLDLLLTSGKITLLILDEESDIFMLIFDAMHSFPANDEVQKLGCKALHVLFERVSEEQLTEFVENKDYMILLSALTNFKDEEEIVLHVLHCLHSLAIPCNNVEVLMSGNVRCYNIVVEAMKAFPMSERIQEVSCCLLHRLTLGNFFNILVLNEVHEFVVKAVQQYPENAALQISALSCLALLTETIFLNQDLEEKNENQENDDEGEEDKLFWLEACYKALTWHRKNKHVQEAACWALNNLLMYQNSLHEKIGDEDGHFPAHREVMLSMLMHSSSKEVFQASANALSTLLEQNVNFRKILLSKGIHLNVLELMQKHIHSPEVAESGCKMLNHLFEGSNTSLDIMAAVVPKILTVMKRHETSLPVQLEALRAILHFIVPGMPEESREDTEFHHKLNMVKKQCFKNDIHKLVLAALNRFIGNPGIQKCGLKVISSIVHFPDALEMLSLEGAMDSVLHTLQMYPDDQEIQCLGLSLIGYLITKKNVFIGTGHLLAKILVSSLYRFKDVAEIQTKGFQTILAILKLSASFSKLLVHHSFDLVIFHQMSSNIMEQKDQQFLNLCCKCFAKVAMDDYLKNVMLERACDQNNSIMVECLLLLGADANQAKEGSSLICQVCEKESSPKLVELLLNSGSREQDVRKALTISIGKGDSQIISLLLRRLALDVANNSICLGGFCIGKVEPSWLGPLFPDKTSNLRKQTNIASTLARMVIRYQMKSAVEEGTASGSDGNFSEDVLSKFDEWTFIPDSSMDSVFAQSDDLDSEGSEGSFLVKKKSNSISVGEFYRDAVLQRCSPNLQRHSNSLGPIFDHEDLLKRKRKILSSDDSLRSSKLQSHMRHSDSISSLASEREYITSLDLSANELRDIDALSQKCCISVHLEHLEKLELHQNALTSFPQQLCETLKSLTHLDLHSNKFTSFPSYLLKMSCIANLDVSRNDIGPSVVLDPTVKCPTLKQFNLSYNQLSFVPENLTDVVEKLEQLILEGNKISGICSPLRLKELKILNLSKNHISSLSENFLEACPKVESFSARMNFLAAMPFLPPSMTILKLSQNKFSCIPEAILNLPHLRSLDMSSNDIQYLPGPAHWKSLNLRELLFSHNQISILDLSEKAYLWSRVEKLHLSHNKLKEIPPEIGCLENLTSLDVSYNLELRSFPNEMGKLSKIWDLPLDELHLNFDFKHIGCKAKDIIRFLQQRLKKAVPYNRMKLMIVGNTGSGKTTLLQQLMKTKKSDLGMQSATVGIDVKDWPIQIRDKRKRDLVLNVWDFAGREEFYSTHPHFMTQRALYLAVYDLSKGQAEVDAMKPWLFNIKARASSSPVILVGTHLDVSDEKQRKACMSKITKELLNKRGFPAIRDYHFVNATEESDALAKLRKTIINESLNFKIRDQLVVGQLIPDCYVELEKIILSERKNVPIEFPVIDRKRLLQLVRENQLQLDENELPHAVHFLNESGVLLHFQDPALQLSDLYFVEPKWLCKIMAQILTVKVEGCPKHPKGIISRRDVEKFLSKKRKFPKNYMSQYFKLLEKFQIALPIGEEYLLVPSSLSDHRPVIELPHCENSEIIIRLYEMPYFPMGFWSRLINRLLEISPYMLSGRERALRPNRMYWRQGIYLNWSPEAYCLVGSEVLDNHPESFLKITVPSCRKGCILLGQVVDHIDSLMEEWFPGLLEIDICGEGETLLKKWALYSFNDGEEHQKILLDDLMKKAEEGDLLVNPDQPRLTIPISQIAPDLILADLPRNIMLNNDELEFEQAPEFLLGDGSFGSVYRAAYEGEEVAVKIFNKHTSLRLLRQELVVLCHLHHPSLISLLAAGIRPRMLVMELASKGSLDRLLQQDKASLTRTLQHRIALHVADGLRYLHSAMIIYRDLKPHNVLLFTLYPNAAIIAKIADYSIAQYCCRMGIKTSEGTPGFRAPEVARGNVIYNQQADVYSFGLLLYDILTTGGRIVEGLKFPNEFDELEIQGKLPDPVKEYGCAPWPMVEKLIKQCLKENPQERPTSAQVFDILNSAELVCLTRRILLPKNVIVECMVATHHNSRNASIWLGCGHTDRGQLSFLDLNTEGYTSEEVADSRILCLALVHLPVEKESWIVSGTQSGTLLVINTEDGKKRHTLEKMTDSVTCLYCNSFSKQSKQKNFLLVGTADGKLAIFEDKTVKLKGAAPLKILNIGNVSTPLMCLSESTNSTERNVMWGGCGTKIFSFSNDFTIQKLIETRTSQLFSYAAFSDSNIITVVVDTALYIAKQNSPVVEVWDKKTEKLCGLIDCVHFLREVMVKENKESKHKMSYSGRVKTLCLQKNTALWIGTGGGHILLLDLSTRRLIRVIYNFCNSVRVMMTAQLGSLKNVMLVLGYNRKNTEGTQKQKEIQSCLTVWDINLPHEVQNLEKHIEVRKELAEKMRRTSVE
T1 sequence (Q5S007 whole entry): as the sequence (Q5S007 whole entry G2019S) above, with S2019G counted along it

In the case of `COc1nc2c(cc1C#N)CCC[C@@H]2Nc1ccc2[nH]nc(-c3cnco3)c2c1` (single isomer, unassigned) [Example 102, enantiomer 1, 2-Methoxy-8-((3-(oxazol-5-yl)-1H-indazol-5-yl)amino)-5,6,7,8-tetrahydroquinoline-3-carbonitrile], the IC50 at LRRK2 WT and at LRRK2 G2019S was under 100 nM each time.

In the case of `COc1nc2c(cc1C#N)CCC[C@@H]2Nc1ccc2[nH]nc(-c3cnco3)c2c1` (single isomer, unassigned) [Example 102, enantiomer 2, 2-Methoxy-8-((3-(oxazol-5-yl)-1H-indazol-5-yl)amino)-5,6,7,8-tetrahydroquinoline-3-carbonitrile], the IC50 at LRRK2 WT fell in the range of 1000 to 10000 nM; at LRRK2 G2019S it was 100 to 1000 nM.

In the case of `N#Cc1cnc2c(c1)CC[C@@H]2Oc1ccc2[nH]nc(-c3cnco3)c2c1` (single isomer, unassigned) [Example 103, enantiomer 1, 7-((3-(Oxazol-5-yl)-1H-indazol-5-yl)oxy)-6,7-dihydro-5H-cyclopenta[b]pyridine-3-carbonitrile], the 50% inhibitory concentration (IC50) on LRRK2 WT and on LRRK2 G2019S was under 100 nM each time.

Turning to `N#Cc1ccc2c(c1)CCCC[C@@H]2Nc1ccc2[nH]nc(-c3cnco3)c2c1` (single isomer, unassigned) [Example 104, enantiomer 1, 5-((3-(Oxazol-5-yl)-1H-indazol-5-yl)amino)-6,7,8,9-tetrahydro-5H-benzo[7]annulene-2-carbonitrile], the 50% inhibitory concentration (IC50) on LRRK2 WT and on LRRK2 G2019S was under 100 nM throughout.

In the case of `N#Cc1ccc2c(c1)CCCC[C@@H]2Nc1ccc2[nH]nc(-c3cnco3)c2c1` (single isomer, unassigned) [Example 104, enantiomer 2, 5-((3-(Oxazol-5-yl)-1H-indazol-5-yl)amino)-6,7,8,9-tetrahydro-5H-benzo[7]annulene-2-carbonitrile], the IC50 at LRRK2 WT and on LRRK2 G2019S was 100 to 1000 nM in each case.

`CC1(C)C[C@H](Nc2ccc3[nH]nc(-c4cnco4)c3c2)c2ccc(C#N)cc21` (single isomer, unassigned) [Example 105, enantiomer 1, 3,3-Dimethyl-1-((3-(oxazol-5-yl)-1H-indazol-5-yl)amino)-2,3-dihydro-1H-indene-5-carbonitrile]: the IC50 is 100 to 1000 nM on LRRK2 WT and under 100 nM at LRRK2 G2019S.

For the compound `CC1(C)C[C@H](Nc2ccc3[nH]nc(-c4cnco4)c3c2)c2ccc(C#N)cc21` (single isomer, unassigned) [Example 105, enantiomer 2, 3,3-Dimethyl-1-((3-(oxazol-5-yl)-1H-indazol-5-yl)amino)-2,3-dihydro-1H-indene-5-carbonitrile], the IC50 at LRRK2 WT was 100 to 1000 nM; at LRRK2 G2019S, under 100 nM.

On to `Cc1nc2c(cc1C#N)CCC[C@@H]2Nc1ccc2[nH]nc(-c3cnco3)c2c1` (single isomer, unassigned) [Example 106, enantiomer 1, 2-Methyl-8-((3-(oxazol-5-yl)-1H-indazol-5-yl)amino)-5,6,7,8-tetrahydroquinoline-3-carbonitrile], for which the IC50 is 100 to 1000 nM on LRRK2 WT and under 100 nM at LRRK2 G2019S.

Consider `Cc1c(C#N)cnc2c1CC[C@@H]2Oc1ccc2[nH]nc(-c3cnco3)c2c1` (single isomer, unassigned) [Example 107, enantiomer 1, 4-Methyl-7-((3-(oxazol-5-yl)-1H-indazol-5-yl)oxy)-6,7-dihydro-5H-cyclopenta[b]pyridine-3-carbonitrile], for which the half-inhibitory concentration (IC50) on LRRK2 WT and at LRRK2 G2019S was under 100 nM each time.

In the case of `Cc1c(C#N)cnc2c1CC[C@@H]2Oc1ccc2[nH]nc(-c3cnco3)c2c1` (single isomer, unassigned) [Example 107, enantiomer 2, 4-Methyl-7-((3-(oxazol-5-yl)-1H-indazol-5-yl)oxy)-6,7-dihydro-5H-cyclopenta[b]pyridine-3-carbonitrile], the results for the IC50 on LRRK2 WT and at LRRK2 G2019S were 100 to 1000 nM and under 100 nM, respectively.

For `Cc1c(C#N)cnc2c1CC[C@@H]2Nc1ccc2[nH]nc(-c3cnco3)c2c1` (single isomer, unassigned) [Example 108, enantiomer 1, 4-Methyl-7-((3-(oxazol-5-yl)-1H-indazol-5-yl)amino)-6,7-dihydro-5H-cyclopenta[b]pyridine-3-carbonitrile], the IC50 at LRRK2 WT was 100 to 1000 nM; on LRRK2 G2019S it was under 100 nM.

Turning to `N#Cc1cnc2c(c1)CC[C@@H]2Nc1ccc2[nH]nc(-c3cnco3)c2c1` (single isomer, unassigned) [Example 109, enantiomer 1, 7-((3-(Oxazol-5-yl)-1H-indazol-5-yl)amino)-6,7-dihydro-5H-cyclopenta[b]pyridine-3-carbonitrile], the IC50 on LRRK2 WT and on LRRK2 G2019S was under 100 nM throughout.

On to `N#Cc1cnc2c(c1)CC[C@@H]2Nc1ccc2[nH]nc(-c3cnco3)c2c1` (single isomer, unassigned) [Example 109, enantiomer 2, 7-((3-(Oxazol-5-yl)-1H-indazol-5-yl)amino)-6,7-dihydro-5H-cyclopenta[b]pyridine-3-carbonitrile], for which the concentration for half-maximal inhibition (IC50) at LRRK2 WT is 100 to 1000 nM; at LRRK2 G2019S, under 100 nM.

With `Cc1cc2c(cc1C#N)CCC[C@@H]2Nc1ccc2[nH]nc(-c3cnco3)c2c1` (single isomer, unassigned) [Example 110, enantiomer 1, 3-Methyl-5-((3-(oxazol-5-yl)-1H-indazol-5-yl)amino)-5,6,7,8-tetrahydronaphthalene-2-carbonitrile], the IC50 at LRRK2 WT and on LRRK2 G2019S was under 100 nM each time.

In the case of `Cc1cc2c(cc1C#N)CCC[C@@H]2Nc1ccc2[nH]nc(-c3cnco3)c2c1` (single isomer, unassigned) [Example 110, enantiomer 2, 3-Methyl-5-((3-(oxazol-5-yl)-1H-indazol-5-yl)amino)-5,6,7,8-tetrahydronaphthalene-2-carbonitrile], the results for the half-maximal inhibitory concentration (IC50) on LRRK2 WT and at LRRK2 G2019S were 100 to 1000 nM and under 100 nM, respectively.

`CN(c1ccc2[nH]nc(-c3cnco3)c2c1)[C@H]1CCc2cc(C#N)ccc21` (single isomer, unassigned) [Example 111, enantiomer 1, 1-(Methyl(3-(oxazol-5-yl)-1H-indazol-5-yl)amino)-2,3-dihydro-1H-indene-5-carbonitrile]: the 50% inhibitory concentration (IC50) on LRRK2 WT and at LRRK2 G2019S was under 100 nM throughout.

Regarding `CN(c1ccc2[nH]nc(-c3cnco3)c2c1)[C@H]1CCc2cc(C#N)ccc21` (single isomer, unassigned) [Example 111, enantiomer 2, 1-(Methyl(3-(oxazol-5-yl)-1H-indazol-5-yl)amino)-2,3-dihydro-1H-indene-5-carbonitrile], the figures for the half-maximal inhibitory concentration (IC50) on LRRK2 WT and at LRRK2 G2019S were 100 to 1000 nM and under 100 nM, respectively.

On to `N#Cc1cc2c(nc1Cl)[C@@H](Nc1ccc3[nH]nc(-c4cnco4)c3c1)CCC2` (single isomer, unassigned) [Example 112, enantiomer 1, 2-Chloro-8-((3-(oxazol-5-yl)-1H-indazol-5-yl)amino)-5,6,7,8-tetrahydroquinoline-3-carbonitrile], for which the half-inhibitory concentration (IC50) on LRRK2 WT was 100 to 1000 nM; at LRRK2 G2019S, under 100 nM.

For the compound `COc1c(C#N)ccc2c1CC[C@@H]2Nc1ccc2[nH]nc(-c3cnco3)c2c1` (single isomer, unassigned) [Example 113, enantiomer 1, 4-Methoxy-1-((3-(oxazol-5-yl)-1H-indazol-5-yl)amino)-2,3-dihydro-1H-indene-5-carbonitrile], the IC50 on LRRK2 WT and at LRRK2 G2019S was under 100 nM in each case.

As for `COc1cc2c(cc1C#N)CCC[C@@H]2Nc1ccc2[nH]nc(-c3cnoc3)c2c1` (single isomer, unassigned) [Example 114, enantiomer 1, 5-((3-(Isoxazol-4-yl)-1H-indazol-5-yl)amino)-3-methoxy-5,6,7,8-tetrahydronaphthalene-2-carbonitrile], the IC50 at LRRK2 WT and at LRRK2 G2019S was 100 to 1000 nM throughout.

On to `COc1cc2c(cc1C#N)CCC[C@@H]2Nc1ccc2[nH]nc(-c3cnoc3)c2c1` (single isomer, unassigned) [Example 114, enantiomer 2, 5-((3-(Isoxazol-4-yl)-1H-indazol-5-yl)amino)-3-methoxy-5,6,7,8-tetrahydronaphthalene-2-carbonitrile], for which the 50% inhibitory concentration (IC50) at LRRK2 WT and on LRRK2 G2019S was under 100 nM each time.

Consider `CC1(C)CC[C@H](Nc2ccc3[nH]nc(-c4cnco4)c3c2)c2ccc(C#N)cc21` (single isomer, unassigned) [Example 115, enantiomer 1, 8,8-Dimethyl-5-((3-(oxazol-5-yl)-1H-indazol-5-yl)amino)-5,6,7,8-tetrahydronaphthalene-2-carbonitrile], for which the values for the half-inhibitory concentration (IC50) at LRRK2 WT and at LRRK2 G2019S were 100 to 1000 nM and under 100 nM, respectively.

For `CC1(C)CC[C@H](Nc2ccc3[nH]nc(-c4cnco4)c3c2)c2ccc(C#N)cc21` (single isomer, unassigned) [Example 115, enantiomer 2, 8,8-Dimethyl-5-((3-(oxazol-5-yl)-1H-indazol-5-yl)amino)-5,6,7,8-tetrahydronaphthalene-2-carbonitrile], the values for the half-maximal inhibitory concentration (IC50) on LRRK2 WT and on LRRK2 G2019S were 100 to 1000 nM and under 100 nM, respectively.

For the compound `CCc1cc(-c2n[nH]c3ccc(N[C@H]4CCCc5cc(C#N)ccc54)cc23)ccn1` (single isomer, unassigned) [Example 116, enantiomer 1, 5-((3-(2-Ethylpyridin-4-yl)-1H-indazol-5-yl)amino)-5,6,7,8-tetrahydronaphthalene-2-carbonitrile], the IC50 at LRRK2 WT and at LRRK2 G2019S was under 100 nM each time.

As for `Cc1c(C#N)ccc2c1CC[C@H]2Nc1ccc2[nH]nc(-c3cnoc3)c2c1` (single isomer, unassigned) [Example 118, enantiomer 1, 1-((3-(Isoxazol-4-yl)-1H-indazol-5-yl)amino)-4-methyl-2,3-dihydro-1H-indene-5-carbonitrile], the 50% inhibitory concentration (IC50) on LRRK2 WT and on LRRK2 G2019S was under 100 nM each time.
